Here are results for five compounds from patent US20210085640A1, “ACYLATED CATECHIN POLYPHENOLS AND METHODS OF THEIR USE FOR THE TREATMENT OF CANCER” (Flagship Pioneering Innovations V, Inc., priority 2018, published 2021).

Data set [1] is described as follows: Stability in Simulated Gastric Fluid (SGF). Type of data set: in vitro ADME. As to conditions: SGF pH 1.6 with pepsin, 1 μM, 37° C. The essentials:
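Compound at 1 μM (from 1 mM DMSO stock) incubated at 37 °C in SGF, pH 1.6 NaCl/HCl buffer with FaSSIF powder and 0.1 mg/mL pepsin. Aliquots quenched with an equal volume of acetonitrile at T0 and regular intervals; degradation rate by LC/MS.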

Data set [2] is described as follows: Stability in Simulated Intestinal Fluid (SIF). The class given is in vitro ADME. To be noted: for Assay 2 (SIF) (% @ Remaining 4 hours): SIF pH 6.7 with pancreatin, 1 μM, 37° C.; for selective delivery to the upper intestine: conclusion drawn from Table 1 (SGF and SIF stability). The protocol: SIF Stability of acylated active agents in Simulated Intestinal Fluid (SIF). This assay was used to assess the stability of an acylated active agent in a small intestine.
Phosphate buffer was prepared by dissolving 0.42 g of sodium hydroxide pellets and 3.95 g of monobasic sodium phosphate monohydrate and 6.19 g of sodium chloride in ultrapure water (MilliQ®, Millipore Sigma, Darmstadt, Germany). The pH was adjusted to 6.7 using aq. HCl and aq. NaOH, as necessary, and the solution was diluted with ultrapure water to produce 1 L of the pH 6.7 buffer.
112 mg FaSSIF powder (Biorelevant™, London, UK) was dissolved in 50 mL of the pH 6.7 buffer. 2 to 3 mL of the resulting solution were then added to 500 mg pancreatin (Millipore Sigma, Darmstadt, Germany). The resulting mixture was agitated by finger tapping the vessel containing the mixture until milky suspension formed. At this time, the remainder of the 50 mL FaSSiF/pH 6.7 buffer solution was added. The resulting suspension was flipped upside down 10 times to produce SIF, which was used fresh.
Test compounds were dissolved in DMSO stock to 1 mM. An aliquot of the DMSO stock solution was removed and diluted in the SIF media in 15 mL falcon tubes to produce a mixture with a tested compound concentration of 1 μM. A 1 mL aliquot was immediately removed and diluted once with 1 volume of acetonitrile for T0 timepoint. The mixture was sealed and agitated at 37° C. in an incubator. Aliquots (1 mL) were removed at regular intervals and immediately quenched by the addition of 1 volume of acetonitrile. The resulting samples were analyzed by LC/MS to determine degradation rates.

Data set [3] in a line: Fecal Incubation Stability. Type of data set: in vitro ADME. To be noted: fecal slurry, anaerobic, 1 or 10 μM. The procedure:
Fecal Incubation Stability. This assay was used to assess the stability of an acylated active agent in a large intestine. All experiments were performed in an anaerobic chamber containing 90% nitrogen, 5% hydrogen and 5% carbon dioxide. Fecal matter in a slurry (15% VW is added to 96 well plates containing YCFA media or other suitable media (1.6 mL). Compounds were added to each individual well to reach a final analyte concentration of 1 or 10 μM, and the material was mixed by pipetting. At set time points a sample was removed, quenched with acetonitrile, and analyzed by LC/MS.

A further data set concerns CD4^+CD25^+ Treg cells. Briefly: In vivo induction of CD4+CD25+ Treg cells in high-fat diet fed mice. As to conditions: C57BL/6 mice fed a high-fat diet; 6% in diet ad libitum; compared to EGCG, acetate, or their combination as separate compounds. An excerpt:
Acylated catechin polyphenols disclosed herein may be useful in modulating cancer markers and for treating cancer.

Take `CC(=O)Oc1cc(OC(C)=O)c2c(c1)O[C@H](c1cc(OC(C)=O)c(OC(C)=O)c(OC(C)=O)c1)[C@H](OC(=O)c1cc(OC(C)=O)c(OC(C)=O)c(OC(C)=O)c1)C2` [Compound 2, [(2R,3R)-5,7-diacetoxy-2-(3,4,5-triacetoxyphenyl)chroman-3-yl] 3,4,5-triacetoxybenzoate]: in data set [1], the “Assay 1 (SGF) (% Remaining @ 1 hours)” value is listed as “C (>75% of the tested compound remaining)”. In addition, in data set [2], the “Assay 2 (SIF) (% @ Remaining 4 hours)” value is given as “A (<25% of the tested compound remaining)” and the “selective delivery to the upper intestine” value was “can be selectively delivered to the upper intestine”. The “Assay 3 (% Remaining at 24 h)” value in data set [3] is given as “A (<25% of the tested compound remaining)”. Besides, the “induction of CD4^+CD25^+ Treg cells” value with CD4^+CD25^+ Treg cells is “synergistic induction”.
`CC(=O)OC[C@H]1O[C@@H](Oc2c(C)c(C)c3c(c2C)CC[C@@](C)(CCC[C@H](C)CCC[C@H](C)CCCC(C)C)O3)[C@H](OC(C)=O)[C@@H](OC(C)=O)[C@@H]1OC(C)=O` [Compound 19, [(2R,3R,4S,5R,6S)-3,4,5-triacetoxy-6-[(2R)-2,5,7,8-tetramethyl-2-[(4R,8R)-4,8,12-trimethyltridecyl]chroman-6-yl]oxy-tetrahydropyran-2-yl]methyl acetate]: in data set [1], the “Assay 1 (SGF) (% Remaining @ 1 hours)” value is “C (>75% of the tested compound remaining)”. Moreover, the “Assay 2 (SIF) (% @ Remaining 4 hours)” value in data set [2] was “C (>75% of the tested compound remaining)”. In addition, the “Assay 3 (% Remaining at 24 h)” value in data set [3] is on record as “C (>75% of the tested compound remaining)”.
`CCC(=O)Oc1cc(OC(=O)CC)c2c(=O)c(OC(=O)CC)c(-c3ccc(OC(=O)CC)c(OC(=O)CC)c3)oc2c1` [Compound 14, [4-[4-oxo-3,5,7-tri(propanoyloxy)chromen-2-yl]-2-propanoyloxy-phenyl] propanoate]: the “Assay 1 (SGF) (% Remaining @ 1 hours)” value in data set [1] is reported as “C (>75% of the tested compound remaining)”. The “Assay 2 (SIF) (% @ Remaining 4 hours)” value in data set [2] is recorded as “C (>75% of the tested compound remaining)”. In addition, the “Assay 3 (% Remaining at 24 h)” value in data set [3] is listed as “C (>75% of the tested compound remaining)”.
For `CCCC(=O)O[C@@H]1[C@@H](OC(=O)CCC)[C@@H](Oc2ccc(N)cc2C(=O)O)OC[C@@H]1OC(=O)CCC` [Compound 17, 5-amino-2-[(2R,3R,4S,5S)-3,4,5-tri(butanoyloxy)tetrahydropyran-2-yl]oxy-benzoic acid], the “Assay 1 (SGF) (% Remaining @ 1 hours)” value in data set [1] is on record as “C (>75% of the tested compound remaining)”. For the same compound, in data set [2], the “Assay 2 (SIF) (% @ Remaining 4 hours)” value was “A (<25% of the tested compound remaining)” and the “selective delivery to the upper intestine” value is listed as “can be selectively delivered to the upper intestine”. In addition, the “Assay 3 (% Remaining at 24 h)” value in data set [3] was “C (>75% of the tested compound remaining)”.
For `CCCC(=O)Oc1cc(OC(=O)CCC)c2c(c1)O[C@H](c1cc(OC(=O)CCC)c(OC(=O)CCC)c(OC(=O)CCC)c1)[C@H](OC(=O)c1cc(OC(=O)CCC)c(OC(=O)CCC)c(OC(=O)CCC)c1)C2` [Compound 1, [(2R,3R)-5,7-di(butanoyloxy)-2-[3,4,5-tri(butanoyloxy)phenyl]chroman-3-yl] 3,4,5-tri(butanoyloxy)benzoate], in data set [1], the “Assay 1 (SGF) (% Remaining @ 1 hours)” value is recorded as “C (>75% of the tested compound remaining)”. Further, the “Assay 2 (SIF) (% @ Remaining 4 hours)” value in data set [2] is on record as “C (>75% of the tested compound remaining)”. Further, the “Assay 3 (% Remaining at 24 h)” value in data set [3] was “C (>75% of the tested compound remaining)”.
